Measurements taken from patent US20130053243A1, “PLANTS HAVING INCREASED TOLERANCE TO HERBICIDES” (BASF SE, priority 2010, published 2013).

Target: T1, Arabidopsis HPPD variant L385V (Arabidopsis thaliana, UniProt P93836, L385V)
T1 construct: His6 (N); made in house; host or cells: E. coli BL21 (DE3)
Experiment: HPPD activity assay, mutant enzyme
Type: biochemical

T1 sequence (P93836 whole entry L385V): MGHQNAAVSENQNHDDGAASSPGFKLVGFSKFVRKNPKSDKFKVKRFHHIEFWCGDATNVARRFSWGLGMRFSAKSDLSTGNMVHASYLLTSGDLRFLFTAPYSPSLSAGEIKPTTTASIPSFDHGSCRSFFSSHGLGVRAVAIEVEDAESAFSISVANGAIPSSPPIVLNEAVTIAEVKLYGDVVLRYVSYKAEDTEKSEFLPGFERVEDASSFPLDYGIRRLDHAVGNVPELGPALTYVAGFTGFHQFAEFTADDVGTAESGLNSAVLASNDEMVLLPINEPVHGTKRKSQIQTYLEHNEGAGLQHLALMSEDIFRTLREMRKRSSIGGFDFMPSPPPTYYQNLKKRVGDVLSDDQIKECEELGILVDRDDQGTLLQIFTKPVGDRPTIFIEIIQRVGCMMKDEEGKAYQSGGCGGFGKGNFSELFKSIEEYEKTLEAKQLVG

Compound `CC1=NOC(c2c(Cl)ccc(C3=C(O)c4ncccc4N(CC(F)F)S3(=O)=O)c2Cl)C1` (stereo not shown) [Inhibitor 1, 3-[2,4-dichloro-3-(3-methyl-4,5-dihydroisoxazol-5-yl)phenyl]-1-(2,2-difluoroethyl)-2,2-dioxo-pyrido[3,2-c]thiazin-4-ol] has a Ki of 19 nM.
